This note sets out measurements from US8044079B2, “Substituted oxindole derivatives, medicaments containing said derivatives and use thereof” (Abbott GmbH & Co. KG, priority 2005, dated 2011).

The target in the assay is T1, human vasopressin V1b receptor (Homo sapiens, UniProt P47901).
T1 construct: expressed in transfected cells; host or cells: CHO-K1 (cell line hV1b_3H2_CHO), membrane preparation
T1 sequence (P47901 1-424): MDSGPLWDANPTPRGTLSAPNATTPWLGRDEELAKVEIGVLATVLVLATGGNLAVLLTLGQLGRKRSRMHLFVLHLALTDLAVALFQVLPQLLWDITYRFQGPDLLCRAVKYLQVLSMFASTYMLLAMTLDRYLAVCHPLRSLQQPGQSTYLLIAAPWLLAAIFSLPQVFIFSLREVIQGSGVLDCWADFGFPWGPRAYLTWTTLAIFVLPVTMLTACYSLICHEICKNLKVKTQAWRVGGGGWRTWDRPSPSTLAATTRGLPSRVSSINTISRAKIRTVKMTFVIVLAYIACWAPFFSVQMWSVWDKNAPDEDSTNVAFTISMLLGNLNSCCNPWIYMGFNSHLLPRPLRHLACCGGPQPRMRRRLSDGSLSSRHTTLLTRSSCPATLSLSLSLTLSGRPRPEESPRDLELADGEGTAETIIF
As to the kind of experiment: Vasopressin V1b receptor binding test. The settings on record: membranes of CHO-K1 cells with human V1b receptor, displacement of 1.5 nM 3H-AVP; for compounds with more than one stereogenic center the diastereomer with greater affinity. In outline: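 Radioligand displacement on membranes carrying human V1b receptor in 50 mM tris, 10 mM MgCl2, 0.1% BSA, pH 7.4, 2% DMSO final; 60 min at room temperature, nonspecific binding with 1 μM AVP. Free ligand removed by filtration, bound counted by liquid scintillation, Ki from nonlinear regression of triplicates.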

Structures are written as SMILES.

In turn, `CCOc1ccc(S(=O)(=O)N2C(=O)C(c3cc(CN4CCN(C)CC4)ccc3OC)(N3CCC[C@H]3c3ncco3)c3cc(Cl)ccc32)cc1` (stereo partly drawn) [Example 80, 5-Chloro-1-(4-ethoxybenzenesulfonyl)-3-[2-methoxy-5-(4-methylpiperazin-1-ylmethyl)phenyl]-3-((S)-2-oxazol-2-yl-pyrrolidin-1-yl)-1,3-dihydroindol-2-one] registered a Ki of 10 to 100 nM.

`COc1ccc(CN2CCN(C)CC2)cc1C1(N2CCC[C@H]2c2ncco2)C(=O)N(S(=O)(=O)c2ccc(C#N)cc2)c2ccc(Cl)cc21` (stereo partly drawn) [Example 81, 5-Chloro-1-(4-cyanobenzenesulfonyl)-3-[2-methoxy-5-(4-methylpiperazin-1-ylmethyl)phenyl]-3-((S)-2-oxazol-2-yl-pyrrolidin-1-yl)-1,3-dihydroindol-2-one] came in with a Ki of 10 to 100 nM. On to `COc1ccc(CN2CCN(C)CC2)cc1C1(N2CCC[C@H]2c2ncco2)C(=O)N(S(=O)(=O)c2ccc(F)cc2)c2ccc(Cl)cc21` (stereo partly drawn) [Example 82, 5-Chloro-1-(4-fluorobenzenesulfonyl)-3-[2-methoxy-5-(4-methylpiperazin-1-ylmethyl)phenyl]-3-((S)-2-oxazol-2-yl-pyrrolidin-1-yl)-1,3-dihydroindol-2-one], for which the inhibition constant Ki lay within 100 to 1000 nM.

Regarding `COc1ccc(CN2CCN(C)CC2)cc1C1(N2CCC[C@H]2c2ncco2)C(=O)N(S(=O)(=O)c2ccccc2)c2ccc(Cl)cc21` (stereo partly drawn) [Example 84, 1-(Benzenesulfonyl)-5-chloro-3-[2-methoxy-5-(4-methylpiperazin-1-ylmethyl)phenyl]-3-((S)-2-oxazol-2-yl-pyrrolidin-1-yl)-1,3-dihydroindol-2-one], the Ki lay in the range of 100 to 1000 nM. Next, `CCc1ccc(S(=O)(=O)N2C(=O)C(c3cc(CN4CCN(C)CC4)ccc3OC)(N3CCC[C@H]3c3ncco3)c3cc(Cl)ccc32)cc1` (stereo partly drawn) [Example 85, 5-Chloro-1-(4-ethylbenzenesulfonyl)-3-[2-methoxy-5-(4-methylpiperazin-1-ylmethyl)phenyl]-3-((S)-2-oxazol-2-yl-pyrrolidin-1-yl)-1,3-dihydroindol-2-one]: 10 to 100 nM; `COc1ccc(S(=O)(=O)N2C(=O)C(c3cc(CN4CCN(C)CC4)ccc3OC)(N3CCC[C@H]3c3ncco3)c3cc(Cl)ccc32)c(OC)c1` (stereo partly drawn) [Example 86, 5-Chloro-1-(2,4-dimethoxybenzenesulfonyl)-3-[2-methoxy-5-(4-methylpiperazin-1-ylmethyl)phenyl]-3-((S)-2-oxazol-2-yl-pyrrolidin-1-yl)-1,3-dihydroindol-2-one]: 10 to 100 nM; `COc1ccc(S(=O)(=O)N2C(=O)C(c3cc(CN4CCN(C)CC4)ccc3OC)(N3CCC[C@H]3c3ncco3)c3cc(Cl)ccc32)cc1F` (stereo partly drawn) [Example 87, 5-Chloro-1-(3-fluoro-4-methoxybenzenesulfonyl)-3-[2-methoxy-5-(4-methylpiperazin-1-ylmethyl)phenyl]-3-((S)-2-oxazol-2-yl-pyrrolidin-1-yl)-1,3-dihydroindol-2-one]: 10 to 100 nM.

`CCN1CCN(Cc2ccc(OC)c(C3(N4CCC[C@H]4c4ncco4)C(=O)N(S(=O)(=O)c4ccc(OC)cc4)c4ccc(Cl)cc43)c2)CC1` (stereo partly drawn) [Example 88, 5-Chloro-3-[5-(4-ethylpiperazin-1-ylmethyl)-2-methoxyphenyl]-1-(4-methoxybenzenesulfonyl)-3-((S)-2-oxazol-2-yl-pyrrolidin-1-yl)-1,3-dihydroindol-2-one]: the inhibitory constant (Ki) is less than 10 nM. Next, `COc1ccc(S(=O)(=O)N2C(=O)C(c3cc(CN4CCN(C(C)C)CC4)ccc3OC)(N3CCC[C@H]3c3ncco3)c3cc(Cl)ccc32)cc1` (stereo partly drawn) [Example 89, 5-Chloro-3-[5-(4-isopropylpiperazin-1-ylmethyl)-2-methoxyphenyl]-1-(4-methoxybenzenesulfonyl)-3-((S)-2-oxazol-2-yl-pyrrolidin-1-yl)-1,3-dihydroindol-2-one]: less than 10 nM; `COc1ccc(S(=O)(=O)N2C(=O)C(c3cc(CN4CCN(C(C)=O)CC4)ccc3OC)(N3CCC[C@H]3c3ncco3)c3cc(Cl)ccc32)cc1` (stereo partly drawn) [Example 90, 3-[5-(4-Acetylpiperazin-1-ylmethyl)-2-methoxyphenyl]-5-chloro-1-(4-methoxybenzenesulfonyl)-3-((S)-2-oxazol-2-yl-pyrrolidin-1-yl)-1,3-dihydroindol-2-one]: 10 to 100 nM.

`COc1ccc(S(=O)(=O)N2C(=O)C(c3cc(CN4CCCN(C)CC4)ccc3OC)(N3CCC[C@H]3c3ncco3)c3cc(Cl)ccc32)cc1` (stereo partly drawn) [Example 91, 5-Chloro-1-(4-methoxybenzenesulfonyl)-3-[2-methoxy-5-(4-methyl-[1,4]diazepan-1-ylmethyl)phenyl]-3-((S)-2-oxazol-2-yl-pyrrolidin-1-yl)-1,3-dihydroindol-2-one]: the inhibitory constant (Ki) was less than 10 nM. The result for `COc1ccc(S(=O)(=O)N2C(=O)C(c3cc(CN4CCN(CCO)CC4)ccc3OC)(N3CCC[C@H]3c3ncco3)c3cc(Cl)ccc32)cc1` (stereo partly drawn) [Example 92, 5-Chloro-3-{5-[4-(2-hydroxyethyl)piperazin-1-ylmethyl]-2-methoxyphenyl}-1-(4-methoxybenzenesulfonyl)-3-((S)-2-oxazol-2-yl-pyrrolidin-1-yl)-1,3-dihydroindol-2-one] reads less than 10 nM.

The molecule `COc1ccc(S(=O)(=O)N2C(=O)C(c3cc(CNCCO)ccc3OC)(N3CCC[C@H]3c3ncco3)c3ccc(Cl)cc32)cc1` (stereo partly drawn) [Example 93, 6-Chloro-3-{5-[(2-hydroxyethylamino)methyl]-2-methoxyphenyl}-1-(4-methoxybenzenesulfonyl)-3-((S)-2-oxazol-2-yl-pyrrolidin-1-yl)-1,3-dihydroindol-2-one] returned an inhibition constant (Ki) of 100 to 1000 nM. The result for `COc1ccc(S(=O)(=O)N2C(=O)C(c3cc(CN4CCN(C(C)C)CC4)ccc3OC)(N3CCC[C@H]3c3ncco3)c3cc(C#N)ccc32)cc1` (stereo partly drawn) [Example 94, 5-Cyano-3-[5-(4-isopropylpiperazin-1-ylmethyl)-2-methoxyphenyl]-1-(4-methoxybenzenesulfonyl)-3-((S)-2-oxazol-2-yl-pyrrolidin-1-yl)-1,3-dihydroindol-2-one] reads 10 to 100 nM. Next, `COc1ccc(S(=O)(=O)N2C(=O)C(c3cc(CN4CCN(C(C)=O)CC4)ccc3OC)(N3CCC[C@H]3c3ncco3)c3cc(C#N)ccc32)cc1` (stereo partly drawn) [Example 95, 5-Cyano-3-[5-(4-acetylpiperazin-1-ylmethyl)-2-methoxyphenyl]-1-(4-methoxybenzenesulfonyl)-3-((S)-2-oxazol-2-yl-pyrrolidin-1-yl)-1,3-dihydroindol-2-one]: 10 to 100 nM. `COc1ccc(S(=O)(=O)N2C(=O)C(c3cc(CN4CCOCC4)ccc3OC)(N3CCC[C@H]3c3ncco3)c3cc(Cl)ccc32)cc1` (stereo partly drawn) [Example 96, 5-Chloro-1-(4-methoxybenzenesulfonyl)-3-(2-methoxy-5-(morpholin-4-ylmethyl)phenyl)-3-((S)-2-oxazol-2-yl-pyrrolidin-1-yl)-1,3-dihydroindol-2-one] registered a Ki of 10 to 100 nM. As to `CNCc1ccc(C2(N3CCC[C@H]3c3ncco3)C(=O)N(S(=O)(=O)c3ccc(OC)cc3)c3ccc(C#N)cc32)c(OC)c1` (stereo partly drawn) [Example 97, 5-Cyano-1-(4-methoxybenzenesulfonyl)-3-(2-methoxy-4-methylaminomethylphenyl)-3-((S)-2-oxazol-2-yl-pyrrolidin-1-yl)-1,3-dihydroindol-2-one], the inhibitory constant (Ki) was 10 to 100 nM.

Consider `CCNCc1ccc(C2(N3CCC[C@H]3c3ncco3)C(=O)N(S(=O)(=O)c3ccc(OC)cc3)c3ccc(C#N)cc32)c(OC)c1` (stereo partly drawn) [Example 98, 5-Cyano-3-(4-ethylaminomethyl-2-methoxyphenyl)-1-(4-methoxybenzenesulfonyl)-3-((S)-2-oxazol-2-yl-pyrrolidin-1-yl)-1,3-dihydroindol-2-one], for which the Ki was in the range of 10 to 100 nM.

`CCCNCc1ccc(C2(N3CCC[C@H]3c3ncco3)C(=O)N(S(=O)(=O)c3ccc(OC)cc3)c3ccc(C#N)cc32)c(OC)c1` (stereo partly drawn) [Example 99, 5-Cyano-1-(4-methoxybenzenesulfonyl)-3-(2-methoxy-4-(propylaminomethyl)phenyl)-3-((S)-2-oxazol-2-yl-pyrrolidin-1-yl)-1,3-dihydroindol-2-one] returned a Ki of 10 to 100 nM. The molecule `COc1ccc(S(=O)(=O)N2C(=O)C(c3ccc(CNC(C)C)cc3OC)(N3CCC[C@H]3c3ncco3)c3cc(C#N)ccc32)cc1` (stereo partly drawn) [Example 100, 5-Cyano-3-[4-(isopropylaminomethyl)-2-methoxyphenyl]-1-(4-methoxybenzenesulfonyl)-3-((S)-2-oxazol-2-yl-pyrrolidin-1-yl)-1,3-dihydroindol-2-one] registered a Ki of 10 to 100 nM. As to `COc1ccc(S(=O)(=O)N2C(=O)C(c3ccc(CN4CCCC4)cc3OC)(N3CCC[C@H]3c3ncco3)c3cc(C#N)ccc32)cc1` (stereo partly drawn) [Example 101, 5-Cyano-1-(4-methoxybenzenesulfonyl)-3-(2-methoxy-4-(pyrrolidin-1-ylmethyl)phenyl)-3-((S)-2-oxazol-2-yl-pyrrolidin-1-yl)-1,3-dihydroindol-2-one], the inhibition constant (Ki) was in the range of 10 to 100 nM. The result for `COc1ccc(S(=O)(=O)N2C(=O)C(c3cc(CN(C)C)ccc3OC)(N3C[C@H](O)C[C@H]3c3ncco3)c3cc(Cl)ccc32)cc1` (stereo partly drawn) [Example 102, 5-Chloro-3-(5-dimethylaminomethyl-2-methoxyphenyl)-3-((2S,4R)-4-hydroxy-2-oxazol-2-yl-pyrrolidin-1-yl)-1-(4-methoxybenzenesulfonyl)-1,3-dihydroindol-2-one] reads less than 10 nM.

The term Ki denotes the dissociation constant of the complex between target and ligand, obtained from inhibition or displacement.
